Assay results reported in ChEMBL document CHEMBL1133401 (Bioorg Med Chem Lett, 2000).
Values after ≈ are worked out from the molar mass of the structure shown.

Legend:
Adenosine receptor A1 = molecular target: T1, Adenosine receptor A1 (Cavia porcellus, UniProt P47745); assay: Ex vivo inhibition of guinea pig ileum twitch via Adenosine A1 receptor.; type: tissue-based
T1 sequence (P47745 whole entry): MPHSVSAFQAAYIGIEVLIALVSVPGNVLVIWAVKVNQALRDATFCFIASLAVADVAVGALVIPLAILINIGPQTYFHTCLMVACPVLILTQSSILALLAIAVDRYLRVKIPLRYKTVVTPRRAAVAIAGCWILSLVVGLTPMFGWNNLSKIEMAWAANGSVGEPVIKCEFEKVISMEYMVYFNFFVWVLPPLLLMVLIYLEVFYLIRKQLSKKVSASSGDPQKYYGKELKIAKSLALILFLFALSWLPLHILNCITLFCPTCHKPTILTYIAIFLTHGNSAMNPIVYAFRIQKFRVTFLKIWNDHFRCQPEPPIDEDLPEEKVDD

Adenosine receptor A2a [1] = molecular target: T2, Adenosine receptor A2a (Rattus norvegicus, UniProt P30543); assay: (§1) Agonistic activity against Adenosine A2A receptor on rat striatal membranes; type: functional, Striatum, Membrane
[2] = The compound was evaluated for the aqueous solubility at pH value of 2.6.; type: physicochemical; details: pH 2.6
Adenosine receptor A2a [3] = molecular target: T2, Adenosine receptor A2a; assay: as §1

T2 sequence (P30543 whole entry): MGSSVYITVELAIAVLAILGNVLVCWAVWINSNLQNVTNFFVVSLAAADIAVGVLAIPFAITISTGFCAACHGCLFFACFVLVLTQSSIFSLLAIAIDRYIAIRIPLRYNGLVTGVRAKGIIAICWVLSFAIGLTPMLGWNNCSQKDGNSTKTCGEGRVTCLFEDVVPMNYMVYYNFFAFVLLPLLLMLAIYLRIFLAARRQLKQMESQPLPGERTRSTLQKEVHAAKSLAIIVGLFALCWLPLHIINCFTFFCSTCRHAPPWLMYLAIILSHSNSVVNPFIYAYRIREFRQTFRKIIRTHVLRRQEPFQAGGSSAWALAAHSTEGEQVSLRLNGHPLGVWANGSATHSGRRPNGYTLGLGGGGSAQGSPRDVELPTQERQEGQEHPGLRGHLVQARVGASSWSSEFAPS

Row | SMILES | ECR (Adenosine receptor A1) | further results
1 | Nc1nc(N[C@H]2CCC[C@@H]2O)nc2c1ncn2[C@@H]1O[C@H](CO)[C@@H](O)[C@H]1O | 84 | 
2 | CCNC(=O)[C@H]1O[C@@H](n2cnc3c(N)nc(N[C@@H]4CCC[C@H]4O)nc32)[C@H](O)[C@@H]1O | 260 | 
3 | Nc1nc(NC2CCCC2)nc2c1ncn2[C@@H]1O[C@H](CO)[C@@H](O)[C@H]1O | 549 | 
4 | CCNC(=O)[C@H]1O[C@@H](n2cnc3c(N)nc(NC4CCCC4)nc32)[C@H](O)[C@@H]1O | 80 | 
5 | OC[C@H]1O[C@@H](n2cnc3c(NCc4cccc5ccccc45)nc(NC4CCCCC4)nc32)[C@H](O)[C@@H]1O |  | Ki (Adenosine receptor A2a [1]): 10.3 µM
6 | OC[C@H]1O[C@@H](n2cnc3c(N[C@@H]4CCC[C@@H]4O)nc(Cl)nc32)[C@H](O)[C@@H]1O | 2 | 
7 | Nc1nc(N[C@@H]2CCC[C@H]2O)nc2c1ncn2[C@@H]1O[C@H](CO)[C@@H](O)[C@H]1O | 1470 | 
8 | OC[C@H]1O[C@@H](n2cnc3c(NC4CCCC4)nc(Cl)nc32)[C@H](O)[C@@H]1O | 1 | 
9 | OC[C@H]1O[C@@H](n2cnc3c(NCc4cccc5ccccc45)ncnc32)[C@H](O)[C@@H]1O |  | Ki (Adenosine receptor A2a [3]): 0.0094 µM
10 | OC[C@H]1O[C@@H](n2cnc3c(NCCc4cccc(Cl)c4)nc(NC4CCCC4)nc32)[C@H](O)[C@@H]1O | > 1000 | 

Second part, led by results:

Row | ECR (Adenosine receptor A1) | SMILES | further results
11 | > 612 | OC[C@H]1O[C@@H](n2cnc3c(NCC(c4ccccc4)c4ccccc4)nc(NC4CCCC4)nc32)[C@H](O)[C@@H]1O | 
12 | 369 | CCNC(=O)[C@H]1O[C@@H](n2cnc3c(NCC(c4ccccc4)c4ccccc4)nc(N[C@H]4CC[C@H](N)CC4)nc32)[C@H](O)[C@@H]1O.O=C(O)C(F)(F)F | solubility [2]: 1570 µg/mL
13 | > 5000 | CCNC(=O)[C@H]1O[C@@H](n2cnc3c(NCC(c4ccccc4)c4ccccc4)nc(NC4CCCC4)nc32)[C@H](O)[C@@H]1O | solubility [2]: 24 µg/mL (≈ 42 µM)
14 | 672 | CCNC(=O)[C@H]1O[C@@H](n2cnc3c(NCC(c4ccccc4)c4ccccc4)nc(NCCc4c[nH]cn4)nc32)[C@H](O)[C@@H]1O | solubility [2]: ≥ 1820 µg/mL
15 | 390 | CCNC(=O)[C@H]1O[C@@H](n2cnc3c(NCC(c4ccccc4)c4ccccc4)nc(N[C@@H]4CCC[C@H]4O)nc32)[C@H](O)[C@@H]1O | 
16 | 263 | CCNC(=O)[C@H]1O[C@@H](n2cnc3c(NCC(c4ccccc4)c4ccccc4)nc(NCCN4CCCCC4)nc32)[C@H](O)[C@@H]1O.O=C(O)C(F)(F)F | solubility [2]: ≥ 1870 µg/mL
